US20110183948A1, “TREATMENT OF FIBROTIC CONDITIONS USING HEDGEHOG INHIBITORS” (INFINITY PHARMACEUTICALS, INC., priority 2010, published 2011)
“And” between values parts separate entries of the source, which are not always exact repeats. Equal entries are not always repeated.

Assays:
[1] = test system: pulmonary fibrosis induced by bleomycin; assay: Bleomycin-induced pulmonary fibrosis model (INF-01): lung histology scoring; type: in vivo, C57BL/6 mice; parameters: key to Chronic Inflammation (0-5): 0: None present; 1: Rare foci; minimal; 2: Scattered aggregates or mild diffuse inflammation; 3: Numerous aggregates or moderate diffuse inflammation; 4: More marked inflammation either scattered or diffuse; 5: More severe inflammation either scattered diffuse inflammation; settings: for pulmonary fibrosis and associated inflammation compared to the vehicle control group: 40 mg/kg, not statistically significant (Kruskal-Wallis); for mean interstitial fibrosis foci count: foci that fill a 10x objective field; for mean chronic inflammation score / mean interstitial fibrosis score: scale 0-5; for Chronic Inflammation (0-5) / Interstitial Fibrosis (0-5) / Number of Foci of Interstitial Fibrosis that Fill a 10x Objective Field: individual animals
Protocol: Thirty-two C57/B6 mice were prospectively randomized into four equally sized groups of eight animals each. An additional four mice served as naïve controls. Pulmonary fibrosis was induced with a single dose of bleomycin (4 U/kg) given intra-nasally on Day 0. Animals' activity and weight were evaluated daily. IPI 926 or vehicle was given every other day from 10 days prior to bleomycin until sacrifice on Day 30, or IPI926 was given beginning on either Day 0 or Day 14 on alternate days until the end of the study. At the end of the study on Day 30, all mice were euthanized and bronchiolar lavage performed to enable an evaluation of the inflammatory infiltrate in the lungs and collect the fluid for possible cytokine evaluation. One lung from each animal was collected for histology, while the other was snap frozen and retained for possible additional analyses.
Bleomycin, a glycopeptides anti-cancer agent originally isolated from Streptomyces verticillus is currently approved for use against squamous cell carcinoma, testicular cancer and Hodgkin's disease. Pulmonary fibrosis is a significant toxicity associated with the use of bleomycin, occurring in a significant percentage of patients undergoing bleomycin therapy. In C57/B6 mice, pulmonary inflammation and subsequent fibrosis is reproducible following bleomycin treatment, and the severity of pulmonary fibrosis is dose-dependent with higher doses being used to evaluate short term inflammatory effects, while lower doses are used to study the longer term impact of pulmonary fibrosis. In this model, mice are given 4 U/kg of bleomycin intranasally and pulmonary fibrosis is evaluated histologically 30 days after the administration of the bleomycin.
Each lung sample was trimmed into 1-3 sections. Tissues were embedded in paraffin and sectioned at approximately 5 microns. Two slides for each lung were stained. One was stained with hematoxylin and eosin (H&E) and another serial section was stained with a trichrome stain. All slides were examined by a board-certified veterinary pathologist. Tissues were scored for chronic inflammation and interstitial fibrosis according to the criteria in Table 5 below. In addition the number of foci of interstitial fibrosis in the lung that filled a 10× objective field (100× total magnification) were counted and reported. Statistical analysis was performed with GraphPad Prism version 4.03 and included a Kruskal-Walis test followed by a Dunn's post-test comparing all groups to each other. Individual animal findings are listed herein in the Tables below.
Lungs were taken at sacrifice on Day 30 for analysis. Lungs were removed and partitioned in two halves. On half was fixed in 10% formalin, before embedding and sectioning. Slides made from each sample were stained with H&E or Masson's Trichrome. The other half of lung sample were snap-frozen in liquid nitrogen and stored at −80 C for future analysis of mRNA by QT-PCR and/or proteomic analysis.

[2] = test system: pancreatic adenocarcinoma; assay: KPC mouse model of pancreatic adenocarcinoma / pancreatic animal models; type: in vivo
[3] = Group 2: Qod, Day −10 to Day 30
[4] = all three treatments, Day-10 to Day 30 greatest effect

CC1=C2C[C@H]3[C@@H](CC[C@@H]4C[C@H](NS(C)(=O)=O)CC[C@@]43C)[C@@H]2CC[C@@]2(C1)O[C@@H]1C[C@H](C)CN[C@H]1[C@H]2C [IPI-926]
pulmonary fibrosis and associated inflammation compared to the vehicle control group [1]: reduction in pulmonary fibrosis and associated inflammation | pulmonary fibrosis and associated inflammation compared to the vehicle control group ([1]; listed as IPI926): effective in reducing the histological features of bleomycin induced pulmonary fibrosis | mean interstitial fibrosis foci count ([1]; Day −10 to Day 30): 2.1 | mean chronic inflammation score ([1]; Day −10 to Day 30): 1.0 | mean interstitial fibrosis score ([1]; Day −10 to Day 30): 1.0 | mean interstitial fibrosis foci count ([1]; Days 0 to 30): 3.4 | mean chronic inflammation score ([1]; Days 0 to 30): 1.1 | mean interstitial fibrosis score ([1]; Days 0 to 30): 1.1 | mean interstitial fibrosis foci count ([1]; Days 14 to 30): 5.9 | mean chronic inflammation score ([1]; Days 14 to 30): 1.6 | mean interstitial fibrosis score ([1]; Days 14 to 30): 1.6 | Chronic Inflammation (0-5) [1, 3]: 1 | Interstitial Fibrosis (0-5) [1, 3]: 1 (1-6 foci that fill a 10x objective field) | Number of Foci of Interstitial Fibrosis that Fill a 10x Objective Field [1, 3]: 2 (2×) and 1 (3×) and 4 (2×) | Chronic Inflammation (0-5) ([1]; Group 3: Qod, Day 0 to Day 30): 1 (7×) and 2 | Interstitial Fibrosis (0-5) ([1]; Group 3: Qod, Day 0 to Day 30): 1 (1-6 foci that fill a 10x objective field) (7×) and 2 (7-12 foci that fill a 10x objective field) | Number of Foci of Interstitial Fibrosis that Fill a 10x Objective Field ([1]; Group 3: Qod, Day 0 to Day 30): 2 (3×) and 10 and 1 (2×) and 4 and 5 | Chronic Inflammation (0-5) ([1]; Group 4: Qod, Day 14 to Day 30): 1 (5×) and 3 (2×) and 2 | Interstitial Fibrosis (0-5) ([1]; Group 4: Qod, Day 14 to Day 30): 1 (1-6 foci that fill a 10x objective field) (5×) and 3 (13-18 foci that fill a 10x objective field) (2×) and 2 (7-12 foci that fill a 10x objective field) | Number of Foci of Interstitial Fibrosis that Fill a 10x Objective Field ([1]; Group 4: Qod, Day 14 to Day 30): 2 (4×) and 14 and 17 and 7 and 1 | Chronic Inflammation Scores compared to Vehicle (FIG. 7) ([1]; all three treatments, Day 0 to Day 30 greatest effect): reduce inflammation compared to the Vehicle control group | Interstitial Fibrosis Scores compared to Vehicle (FIG. 8) [1, 4]: reduce inflammation compared to the Vehicle control group | number of foci of interstitial fibrosis compared to Vehicle (FIG. 9) [1, 4]: reduce inflammation compared to the Vehicle control group | amount of lung fibrosis induced by bleomycin ([1]; d=−10, Mann-Whitney test, p<0.05): decreases the amount of lung fibrosis induced by bleomycin in a statistically significant manner | desmoplastic infiltration ([2]; KPC mouse model): inhibition of desmoplastic infiltration | metastasis ([2]; KPC mouse model): decreased metastasis | survival ([2]; KPC mouse model): increased survival | desmoplastic component ([2]; pancreatic animal models): dramatic effect on the desmoplastic component
